From PubChem BioAssay AID248 (DTP/NCI, 2004) come the findings set out here.

The subject of this experiment is L1210 leukemia ip in BDF1 mice, survival T/C. Nature of the experiment: NCI In Vivo Anticancer Drug Screen. Data for tumor model L1210 Leukemia (intraperitoneal) in B6D2F1 (BDF1) mice. To be noted: endpoint: mean survival time, higher = longer survival. In outline:
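Tumor cells were implanted, animals were treated, and survival was followed. The result divides the treated measurement by the vehicle-control measurement.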

Setting [1] is: dose: 100.0 mg/kg/injection, schedule: Q01DX001 (ip), vehicle: saline.
Setting [2] is: dose: 200.0 mg/kg/injection, schedule: Q01DX001 (ip), vehicle: saline.
The mark [3] stands for this setting: dose: 100.0 mg/kg/injection, schedule: Q01DX009 (ip), vehicle: saline with Tween-80.
The mark [4] stands for this setting: dose: 200.0 mg/kg/injection, schedule: Q01DX009 (ip), vehicle: saline with Tween-80.
[5] abbreviates: dose: 100.0 mg/kg/injection, schedule: Q01DX009 (ip), vehicle: Klucel (hydroxypropylcellulose) (HPC).
Where [6] appears, read: dose: 100.0 mg/kg/injection, schedule: Q01DX009 (ip), vehicle: saline.
[7] abbreviates: dose: 100.0 mg/kg/injection, schedule: Q04DX003 (ip), vehicle: saline.
[8] abbreviates: dose: 200.0 mg/kg/injection, schedule: Q01DX009 (ip), vehicle: saline.
[9] abbreviates: dose: 200.0 mg/kg/injection, schedule: Q04DX003 (ip), vehicle: saline.
The mark [10] stands for this setting: dose: 400.0 mg/kg/injection, schedule: Q01DX009 (ip), vehicle: saline.
[11] abbreviates: dose: 400.0 mg/kg/injection, schedule: Q04DX003 (ip), vehicle: saline.
Where [12] appears, read: dose: 400.0 mg/kg/injection, schedule: Q01DX001 (ip), vehicle: saline.
[13] abbreviates: dose: 100.0 mg/kg/injection, schedule: Q04DX002 (ip), vehicle: Klucel (hydroxypropylcellulose) (HPC).
Where [14] appears, read: dose: 200.0 mg/kg/injection, schedule: Q04DX002 (ip), vehicle: Klucel (hydroxypropylcellulose) (HPC).
Where [15] appears, read: dose: 400.0 mg/kg/injection, schedule: Q04DX002 (ip), vehicle: Klucel (hydroxypropylcellulose) (HPC).
[16] abbreviates: dose: 100.0 mg/kg/injection, schedule: Q04DX003 (ip), vehicle: saline with Tween-80.
[17] abbreviates: dose: 200.0 mg/kg/injection, schedule: Q01DX009 (ip), vehicle: Klucel (hydroxypropylcellulose) (HPC).
The mark [18] stands for this setting: dose: 200.0 mg/kg/injection, schedule: Q04DX003 (ip), vehicle: saline with Tween-80.
Where [19] appears, read: dose: 400.0 mg/kg/injection, schedule: Q01DX009 (ip), vehicle: Klucel (hydroxypropylcellulose) (HPC).
Where [20] appears, read: dose: 400.0 mg/kg/injection, schedule: Q04DX003 (ip), vehicle: saline with Tween-80.

Structures are written as SMILES. “And” between values parts separate entries of the source, which are not always exact repeats. Identical values can stand only once. Toxic doses and inconclusive results are not listed.

With `CNC(=Nc1ccc(NC(=O)NC(=O)c2ccc(C(=O)NC(=O)Nc3ccc(N=C(NC)c4ccccc4)cc3)cc2)cc1)c1ccccc1`, the T/C is, setting by setting: (dose: 62.0 mg/kg/injection, schedule: Q01DX Z (ip), vehicle: carboxymethylcellulose (CMC)) 88 % of control; (dose: 125.0 mg/kg/injection, schedule: Q01DX Z (ip), vehicle: carboxymethylcellulose (CMC)) 104 % of control; (dose: 250.0 mg/kg/injection, schedule: Q01DX Z (ip), vehicle: carboxymethylcellulose (CMC)) 92 % of control; (dose: 500.0 mg/kg/injection, schedule: Q01DX Z (ip), vehicle: carboxymethylcellulose (CMC)) 95 % of control.

Consider `CCCCCCC[As](=O)(O)CCCCCCC`, for which the T/C was 106 % of control (dose: 50.0 mg/kg/injection, schedule: Q01DX001 (ip), vehicle: saline); 103 % of control under setting [1]; 101 % of control under setting [2].

As to `CC(=O)c1ccc(C(=O)O)cc1`, the T/C reads like this: (dose: 50.0 mg/kg/injection, schedule: Q01DX009 (ip), vehicle: saline with Tween-80) 87 % of control; under setting [3], 115 % of control; under setting [4], 94 % of control.

Regarding `CCOc1c(OC)cc(/C=C/C(=O)NC2CC2)cc1OC`, the T/C runs as follows: (dose: 25.0 mg/kg/injection, schedule: Q01DX009 (ip), vehicle: Klucel (hydroxypropylcellulose) (HPC)) 88 % of control; under setting [5], 101 % of control and 88 % of control.

Consider `C1CCC(=[N+]2CCCC2)CC1`, for which the T/C runs as follows: under setting [6], 93 % of control; under setting [7], 106 % of control; under setting [8], 101 % of control; under setting [9], 104 % of control; under setting [10], 88 % of control; under setting [11], 102 % of control.

On to `NC(Cc1nn[nH]n1)C(=O)O` (stereo unspecified), for which the T/C by setting is: (dose: 100.0 mg/kg/injection, schedule: Q01DX009 (ip), vehicle: water) 102 % of control; (dose: 100.0 mg/kg/injection, schedule: Q04DX003 (ip), vehicle: water) 96 % of control; (dose: 200.0 mg/kg/injection, schedule: Q01DX009 (ip), vehicle: water) 102 % of control; (dose: 200.0 mg/kg/injection, schedule: Q04DX003 (ip), vehicle: water) 94 % of control; (dose: 400.0 mg/kg/injection, schedule: Q01DX009 (ip), vehicle: water) 98 % of control; (dose: 400.0 mg/kg/injection, schedule: Q04DX003 (ip), vehicle: water) 88 % of control.

With `O=C(O)C(CCc1ccccc1)N1CCOCC1` (stereo unspecified), the T/C reads like this: under setting [6], 100 % of control; under setting [8], 101 % of control; under setting [10], 103 % of control.

Turning to `C1CC23CSCC12CSC3` (stereo unspecified), the T/C was 103 % of control under setting [1], 111 % of control under setting [2] and 108 % of control under setting [12].

As for `CC1(C)CCC2=C(C1)Nc1ccc(Cl)cc1NC2c1ccc([N+](=O)[O-])cc1` (stereo unspecified), the T/C is, setting by setting: under setting [13], 117 % of control; under setting [14], 109 % of control; under setting [15], 98 % of control.

As for `CCC/C=C\COc1ccc(C(=O)OCC)cc1`, the T/C runs as follows: (dose: 100.0 mg/kg/injection, schedule: Q04DX002 (ip), vehicle: other) 111 % of control; (dose: 200.0 mg/kg/injection, schedule: Q04DX002 (ip), vehicle: other) 108 % of control; (dose: 400.0 mg/kg/injection, schedule: Q04DX002 (ip), vehicle: other) 97 % of control.

Take `CCCC[n+]1ccccc1Cc1ccccc1`: the T/C is 102 % of control (dose: 6.25 mg/kg/injection, schedule: Q04DX003 (ip), vehicle: saline) and 97 % of control (dose: 12.5 mg/kg/injection, schedule: Q04DX003 (ip), vehicle: saline).

As for `CC(C)=CCC/C(C)=C\C=N\O`, the T/C is 101 % of control (dose: 100.0 mg/kg/injection, schedule: Q01DX001 (ip), vehicle: carboxymethylcellulose (CMC)); 95 % of control (dose: 200.0 mg/kg/injection, schedule: Q01DX001 (ip), vehicle: carboxymethylcellulose (CMC)); 98 % of control (dose: 400.0 mg/kg/injection, schedule: Q01DX001 (ip), vehicle: carboxymethylcellulose (CMC)).

Consider `CN(CCc1ccccc1)/N=N/c1nc[nH]c1C(N)=O`, for which the T/C is 96 % of control (dose: 100.0 mg/kg/injection, schedule: Q01DX001 (ip), vehicle: saline with Tween-80); 102 % of control under setting [5]; 110 % of control under setting [16]; 101 % of control (dose: 118.0 mg/kg/injection, schedule: Q04DX003 (ip), vehicle: saline with Tween-80); 155 % of control (dose: 150.0 mg/kg/injection, schedule: Q01DX009 (ip), vehicle: saline with Tween-80); 115 % of control (dose: 177.0 mg/kg/injection, schedule: Q04DX003 (ip), vehicle: saline with Tween-80). Moreover, the T/C (dose: 200.0 mg/kg/injection, schedule: Q01DX001 (ip), vehicle: saline with Tween-80) is 104 % of control; the T/C under setting [17] is 103 % of control; the T/C under setting [18] is 112 % of control; the T/C (dose: 300.0 mg/kg/injection, schedule: Q01DX009 (ip), vehicle: saline with Tween-80) is 163 % of control; the T/C (dose: 400.0 mg/kg/injection, schedule: Q01DX001 (ip), vehicle: saline with Tween-80) is 118 % of control; the T/C under setting [19] is 113 % of control. Further, the T/C by setting is: under setting [20], 150 % of control; (dose: 600.0 mg/kg/injection, schedule: Q04DX003 (ip), vehicle: saline with Tween-80) 179 % of control.

As for `O=[N+]([O-])c1cncc([N+](=O)[O-])c1NCc1ccccc1`, the T/C is, setting by setting: under setting [16], 103 % of control; under setting [18], 93 % of control; under setting [20], 104 % of control.

As for `CNC(=O)Nc1ccc(Cl)cc1C`, the T/C was 98 % of control under setting [5]; 96 % of control (dose: 100.0 mg/kg/injection, schedule: Q04DX003 (ip), vehicle: Klucel (hydroxypropylcellulose) (HPC)); 102 % of control under setting [17]; 96 % of control (dose: 200.0 mg/kg/injection, schedule: Q04DX003 (ip), vehicle: Klucel (hydroxypropylcellulose) (HPC)); 106 % of control (dose: 400.0 mg/kg/injection, schedule: Q04DX003 (ip), vehicle: Klucel (hydroxypropylcellulose) (HPC)).

Turning to `COC(=O)COc1cc(Cl)c(Cl)cc1Cl`, the T/C (dose: 100.0 mg/kg/injection, schedule: Q04DX002 (ip), vehicle: saline with Tween-80) was 95 % of control and the T/C (dose: 200.0 mg/kg/injection, schedule: Q04DX002 (ip), vehicle: saline with Tween-80) is 95 % of control.

In the case of `CCOC(=O)c1ccccc1C(=O)c1ccccc1`, the T/C is 118 % of control under setting [13], 100 % of control under setting [14] and 95 % of control under setting [15].

`O=[N+]([O-])c1ccc(S(=O)(=O)CC(Cl)c2ccccc2)cc1` (stereo unspecified): the T/C under setting [1] is 102 % of control; the T/C (dose: 100.0 mg/kg/injection, schedule: Q01DX009 (ip), vehicle: acetone) is 86 % of control; the T/C under setting [2] is 107 % of control; the T/C (dose: 200.0 mg/kg/injection, schedule: Q01DX009 (ip), vehicle: acetone) is 94 % of control; the T/C under setting [12] is 110 % of control; the T/C (dose: 400.0 mg/kg/injection, schedule: Q01DX009 (ip), vehicle: acetone) was 96 % of control.

In the case of `CC(=O)c1cccc(C#N)c1`, the T/C is 100 % of control under setting [3]; 97 % of control under setting [4]; 105 % of control (dose: 400.0 mg/kg/injection, schedule: Q01DX009 (ip), vehicle: saline with Tween-80).

On to `CCCCCCCSc1nsc(SCCCCCCC)c1C#N`, for which the T/C reads like this: under setting [5], 104 % of control; under setting [17], 114 % of control; under setting [19], 101 % of control.

As for `NC(CNO)C(=O)O` (stereo unspecified), the T/C under setting [6] was 101 % of control; the T/C under setting [7] was 103 % of control; the T/C under setting [8] was 103 % of control; the T/C under setting [9] is 97 % of control; the T/C under setting [10] was 110 % of control; the T/C under setting [11] is 111 % of control.
